Experiments:
[1] = target: T1, Cholesteryl ester transfer protein (Homo sapiens) (UniProt P11597); experiment: Inhibition of human CETP at 10 uM relative to control
T1 sequence (whole entry): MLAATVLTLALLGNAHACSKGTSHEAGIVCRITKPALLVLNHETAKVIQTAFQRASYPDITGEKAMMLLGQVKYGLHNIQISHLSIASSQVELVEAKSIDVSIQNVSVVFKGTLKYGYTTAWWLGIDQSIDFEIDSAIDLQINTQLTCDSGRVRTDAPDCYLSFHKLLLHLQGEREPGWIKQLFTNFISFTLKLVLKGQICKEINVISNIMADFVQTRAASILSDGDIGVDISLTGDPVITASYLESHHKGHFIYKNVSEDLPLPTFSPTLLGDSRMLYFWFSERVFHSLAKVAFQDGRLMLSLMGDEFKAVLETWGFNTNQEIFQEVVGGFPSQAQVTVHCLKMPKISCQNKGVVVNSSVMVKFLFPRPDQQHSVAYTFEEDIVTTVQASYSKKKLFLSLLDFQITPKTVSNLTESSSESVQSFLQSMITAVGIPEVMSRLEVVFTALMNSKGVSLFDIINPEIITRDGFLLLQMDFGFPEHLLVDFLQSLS

[2] = target: T2, Cholesteryl ester transfer protein (Homo sapiens, UniProt P11597); experiment: Inhibition of human CETP
T2 sequence (P11597 whole entry): T1 sequence (whole entry)

Compound C[C@H]1[C@H](C)CC[C@]2(C(=O)O)CC[C@]3(C)C(=CC[C@@H]4[C@@]5(C)CC[C@H](OC(=O)CC6(CC(=O)O)CCCC6)C(C)(C)[C@@H]5CC[C@]43C)[C@H]12 has an inhibition [1] of 0%.

For C[C@H]1[C@H](C)CC[C@]2(C(=O)O)CC[C@]3(C)C(=CC[C@@H]4[C@@]5(C)CC[C@H](O)C(C)(C)[C@@H]5CC[C@]43C)[C@H]12 [URSOLIC ACID], the IC50 [2] was > 50 µM.

C[C@H]1[C@H](C)CC[C@]2(C(=O)O)CC[C@]3(C)C(=CC[C@@H]4[C@@]5(C)CC[C@H](OC(=O)CCCC(=O)O)C(C)(C)[C@@H]5CC[C@]43C)[C@H]12 showed an inhibition [1] of 55.1% and an IC50 [2] of 3.2 µM.

Compound C[C@H]1[C@H](C)CC[C@]2(C(=O)O)CC[C@]3(C)C(=CC[C@@H]4[C@@]5(C)CC[C@H](OC(=O)c6ccc(C(=O)O)cc6)C(C)(C)[C@@H]5CC[C@]43C)[C@H]12 has an inhibition [1] of 24.5%.

C[C@H]1[C@H](C)CC[C@]2(C(=O)O)CC[C@]3(C)C(=CC[C@@H]4[C@@]5(C)CC[C@H](OC(=O)CC(C)(C)CC(=O)O)C(C)(C)[C@@H]5CC[C@]43C)[C@H]12 gave an inhibition [1] of 0%.

In the case of CC(CC(=O)O)CC(=O)O[C@H]1CC[C@]2(C)[C@H]3CC=C4[C@@H]5[C@@H](C)[C@H](C)CC[C@]5(C(=O)O)CC[C@@]4(C)[C@]3(C)CC[C@H]2C1(C)C (some centres not stated), the inhibition [1] is reported as 1.1%.

C[C@H]1[C@H](C)CC[C@]2(C(=O)O)CC[C@]3(C)C(=CC[C@@H]4[C@@]5(C)CC[C@H](OC(=O)CC6(CC(=O)O)CCCCC6)C(C)(C)[C@@H]5CC[C@]43C)[C@H]12 gave an inhibition [1] of 1.5%.

With C[C@H]1[C@H](C)CC[C@]2(C(=O)O)CC[C@]3(C)C(=CC[C@@H]4[C@@]5(C)CC[C@H](OC(=O)CCC(=O)O)C(C)(C)[C@@H]5CC[C@]43C)[C@H]12 the inhibition [1] was 42.8% and the IC50 [2] was 10.9 µM.

C[C@H]1[C@H](C)CC[C@]2(C(=O)O)CC[C@]3(C)C(=CC[C@@H]4[C@@]5(C)CC[C@H](OC(=O)c6cccc(C(=O)O)c6)C(C)(C)[C@@H]5CC[C@]43C)[C@H]12 gave an inhibition [1] of 61.8% and an IC50 [2] of 3.3 µM.

In the case of COc1cc(F)c(C(C)C)cc1-c1ccc(C(F)(F)F)cc1CN1C(=O)O[C@H](c2cc(C(F)(F)F)cc(C(F)(F)F)c2)[C@@H]1C, the inhibition [1] is reported as 88.4%.

C[C@H]1[C@H](C)CC[C@]2(C(=O)O)CC[C@]3(C)C(=CC[C@@H]4[C@@]5(C)CC[C@H](OC(=O)c6ccccc6)C(C)(C)[C@@H]5CC[C@]43C)[C@H]12 was tested, and the inhibition [1] was 22.7%.

Work on C[C@H]1[C@H](C)CC[C@]2(C(=O)O)CC[C@]3(C)C(=CC[C@@H]4[C@@]5(C)CC[C@H](OC(=O)CCCCC(=O)O)C(C)(C)[C@@H]5CC[C@]43C)[C@H]12 yielded an inhibition [1] of 23.3%.

Compound C[C@H]1[C@H](C)CC[C@]2(C(=O)O)CC[C@]3(C)C(=CC[C@@H]4[C@@]5(C)CC[C@H](OC(=O)c6cccnc6)C(C)(C)[C@@H]5CC[C@]43C)[C@H]12 has an inhibition [1] of 11.2%.

Compound C[C@H]1[C@H](C)CC[C@]2(C(=O)O)CC[C@]3(C)C(=CC[C@@H]4[C@@]5(C)CC[C@H](OC(=O)CCCCCC(=O)O)C(C)(C)[C@@H]5CC[C@]43C)[C@H]12 has an inhibition [1] of 11.1%.

C[C@H]1[C@H](C)CC[C@]2(C(=O)O)CC[C@]3(C)C(=CC[C@@H]4[C@@]5(C)CC[C@H](OC(=O)c6ccccc6C(=O)O)C(C)(C)[C@@H]5CC[C@]43C)[C@H]12 was tested, and the inhibition [1] was 47.9% and the IC50 [2] was 5.5 µM.

C[C@H]1[C@H](C)CC[C@]2(C(=O)O)CC[C@]3(C)C(=CC[C@@H]4[C@@]5(C)CC[C@H](OC(=O)C6C(C(=O)O)C6(C)C)C(C)(C)[C@@H]5CC[C@]43C)[C@H]12 (some centres not stated) showed an inhibition [1] of 9%.

C[C@H]1[C@H](C)CC[C@]2(C(=O)O)CC[C@]3(C)C(=CC[C@@H]4[C@@]5(C)CC[C@H](OC(=O)C6CC6C(=O)O)C(C)(C)[C@@H]5CC[C@]43C)[C@H]12 (some centres not stated) showed an inhibition [1] of 53.2% and an IC50 [2] of 2.4 µM.

From ChEMBL document CHEMBL4602625, “Synthesis, biological evaluation and SAR studies of ursolic acid 3β-ester derivatives as novel CETP inhibitors” (Bioorg Med Chem Lett, 2020)
